The subject of assay [1] is xpc. The experiment in a line: Test D. Murine animal studies: up-regulation of DNA repair enzyme xpc in dorsal skin. The following applies: 5% in cream vehicle, topical. It is filed as in vivo, mouse.
Description: (§1) The UVA, UVB and Solar Simulated Light (SSL) treatment groups included mice that were left untouched in their cages (no preventative treatment) and mice treated topically on their backs with cream vehicle or AR compounds in the cream vehicle and rubbed with a glove. At 20 minutes post treatment the mice were exposed to 180 mJ/cm^2 of UVA, UVB or SSL equivalent to one hour of noon day summer sunlight. One, four, eight and twenty-four hours post UVA, UVB or SSL exposure, the mice were euthanized by IP Ketamine/Xylazine injection and bled.
(§2) The no UVA, UVB and SSL treatment groups included mice which were left untouched in their cages (no preventative treatment) and mice treated topically on their backs with cream vehicle and AR compounds in cream vehicle as indicated above. After treatment the mice were placed back into their cages, away from sunlight. One, four, eight and twenty-four hours post treatment, the no UVA, UVB and SSL treated mice were euthanized by IP Ketamine/Xylazine injection and bled.
(§3) For the animal groups above, post euthanasia, the dorsal and belly skin was collected and preserved in Zamboni's fixative for future studies. […] The skin was analyzed in-house by immunohistostaining (p53, thymine dimer, XPC and other DNA repair enzymes, collagen, elastin, etc.) and confocal microscopy. […]
Assay [2] has as its system SKH-1 hairless mouse dorsal skin. In words: Test D. Murine animal studies: thymine dimer formation (DNA damage) in dorsal skin. The assay is classed as in vivo.
Description: Test D. Murine Animal Studies
as §1, §2, §3
In assay [3] the test system is xpc. The experiment in a line: Test E. Human skin study: xpc production.
Description: Human skin was obtained from the University of Minnesota BioNet Tissue Procurement Facility and stored on ice or in cell culture media until ready to be used. All samples were kept away from sunlight. The skin was cut into pieces and placed in 6-well cell culture plates with a small amount of culture media at the bottom of the well but not enough to cover the top of the tissue. Using a gloved hand, the skin was rubbed with cream vehicle or AR drug in the cream vehicle. At 20 minutes post treatment the skin was exposed to 180 mJ/cm^2 of UVA, UVB or Solar Simulated Light (SSL) equivalent to one hour of noon day summer sunlight. Post UVA, UVB or SSL exposure, additional media was placed in the bottom of the wells and the plates moved to the tissue culture incubator (37° C., 5% CO2). Samples were removed from the incubator and placed in Zamboni's fixative for future studies at one, four, eight and twenty-four hours post UVA, UVB or SSL exposure.
Samples not exposed to UVA, UVB or SSL light were placed into 6-well plates with a small amount of cell culture media but not enough to cover the top of the tissue and stored in the cell culture incubator. […]
All skin samples were analyzed in-house by immunohistostaining (p53, thymine dimer, XPC and other DNA repair enzymes, collagen, elastin, etc.) and confocal microscopy.

The source of these data is patent US9403778B2, “Agents that prevent or repair skin damage” (Regents of the University of Minnesota, priority 2012, dated 2016).

SMILES strings stand for the structures. Bounds are passed on as bounds.

As for `CCCC(=O)N(CCn1cc(C)c(=O)[nH]c1=O)CCn1cc(C)c(=O)[nH]c1=O` [Compound 24a], in assay [1] (solar simulated light equivalent to 1 h noon time summer sun light, vs SSL cream-only control), the “xpc production in SSL exposed skin” value is “stimulated xpc production”. Further, the “protection against thymine dimer formation (DNA damage)” value in assay [2] (in cream vehicle, topical 20 minutes prior to UVB 6 KJ/m^2, harvested 4 hours after irradiation, vs UV only control) is on record as “protected against thymine dimer formation”.
As to `C[C@@]12C(=O)NC(=O)N3CCCN4C(=O)NC(=O)[C@]1(C)[C@H]4[C@H]32` [Compound 10], the “xpc levels / xpc staining in non-irradiated human skin” value in assay [3] (human skin not exposed to SSL, compared with SSL only control) is given as “higher levels of xpc than the SSL only control”. The “time post application at which xpc stimulation is still evident” value in assay [3] (non SSL damaged human skin) is at least 8 h. In assay [1] (no SSL irradiation), the “xpc immuno-reactivity (xpc antibody)” value is “significant immuno-reactivity”. In addition, the “thymine dimer immuno-reactivity of skin section” value in assay [2] (5% in cream vehicle, topical, no SSL irradiation, 8 hour time point) is recorded as “completely negative”.
